Data published in the NIST ThermoML archive (doi:10.1007/s10765-013-1487-y).
“And” between values parts separate entries of the source, which are not always exact repeats. Identical values can stand only once.

Conditions: 101.33 kPa, Liquid; for mass density: Vibrating tube method

CCOS(=O)(=O)[O-].CCn1cc[n+](C)c1 [1-ethyl-3-methylimidazolium ethyl sulfate]
Conditions	mass density
290.65 K	1243.24 kg/m3
290.66 K	1243.24 kg/m3
293.15 K	1241.55 kg/m3
293.16 K	1241.54 kg/m3
295.65 K	1239.85 kg/m3
298.15 K	1238.14 kg/m3 and 1238.15 kg/m3
298.16 K	1238.15 kg/m3
300.65 K	1236.44 kg/m3 and 1236.46 kg/m3
300.66 K	1236.45 kg/m3
303.15 K	1234.75 kg/m3 and 1234.76 kg/m3
305.64 K	1233.06 kg/m3
305.65 K	1233.06 kg/m3
305.66 K	1233.06 kg/m3
308.14 K	1231.37 kg/m3
308.15 K	1231.37 kg/m3
308.16 K	1231.37 kg/m3
310.64 K	1229.68 kg/m3 and 1229.69 kg/m3
310.66 K	1229.68 kg/m3
313.15 K	1228 kg/m3
315.64 K	1226.32 kg/m3
315.66 K	1226.31 kg/m3
318.15 K	1224.63 kg/m3 and 1224.64 kg/m3
320.65 K	1222.96 kg/m3

viscosity [mPa·s]
Conditions	293.14 K	293.23 K	298.18 K	298.19 K	303.15 K	308.21 K	313.14 K	318.13 K
Capillary tube (Ostwald / Ubbelohde) method	–	128.62	99.37	–	–	–	–	–
Vibrating wire viscometry	125.7	–	–	97.19	76.8	61.42	50.05	41.42

CCOS(=O)(=O)[O-].CC[n+]1cccc(C)c1 [1-ethyl-3-methylpyridinium ethylsulfate]
Capillary tube (Ostwald / Ubbelohde) method
Conditions	viscosity [mPa·s]
293.16 K	182.68
298.13 K	135.35

CCCCCC[n+]1ccn(C)c1.O=S(=O)([N-]S(=O)(=O)C(F)(F)F)C(F)(F)F
Capillary tube (Ostwald / Ubbelohde) method
Conditions	viscosity [mPa·s]
293.25 K	89.98
298.19 K	71.11
